Laboratory results as given in US11230543B2, “Biaryl monobactam compounds and methods of use thereof for the treatment of bacterial infections” (priority 2015, dated 2022).
Where a name gives a salt, the structure may show the parent alone.

Assays:
Type in all cases: cell-based
Details in all cases: lowest concentration inhibiting 95% of bacterial growth; in the presence of β lactamase inhibitor Relebactam 4 μg/mL; 35±2° C. for 22 hours; tested range 100 μM to 0.098 μM
[1] = test system: Pseudomonas aeruginosa expressing AmpC (CL5701); test: Antibiotic activity: growth inhibitory concentration (OD600), Pseudomonas aeruginosa CL5701
Method in brief: (§1)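 Clinical strains at ~2×10^5 CFU/mL in cation-adjusted Mueller-Hinton II broth, with relebactam at 4 μg/mL final; compounds 100 μM to 0.098 μM final. After 22 hours at 35±2° C, OD600 read; MITC95 is lowest concentration giving 95% growth inhibition.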

[2] = test system: Acinetobacter baumannii expressing TEM-1, AmpC, and Oxa-24/40 (CL6188); test: Antibiotic activity: growth inhibitory concentration (OD600), Acinetobacter baumannii CL6188
Procedure: (§2) Antibiotic Activity: Determination of Growth Inhibitory Concentration
(§3) The concentrations of compounds required to inhibit the growth of various strains of bacteria were determined in an assay that assessed bacterial growth by measuring optical density at 600 nm (OD600). The bacterial strains tested included the clinical strains Escherichia coli expressing NDM-1 (CLB30016), Klebsiella pneumoniae expressing KPC-1 (CL6569), Acinetobacter baumannii expressing TEM-1, AmpC, and Oxa-24/40 (CL6188) and Pseudomonas aeruginosa expressing AmpC (CL5701). All compounds were tested in the presence of a β lactamase inhibitor (BLi, Relebactam) in 384-well microplates. The clinical strains were stored as frozen single use stocks, thawed and diluted into 1.1× cation-adjusted Mueller-Hinton II broth to achieve approximately 2×10^5 CFU/mL. Test compounds were dissolved in DMSO and diluted 1:50 in the assay, resulting in a final concentration range of 100 μM to 0.098 μM. […] At the end of the incubation, absorbance at 600 nm was determined using a spectrophotometer. Inhibition was quantitated by identifying the lowest concentration of test compound that was required to inhibit 95% of the growth of the bacteria. The results for Examples 1-126 are reported in Table I, expressed as the concentration of compound that inhibited 95% of bacterial growth (Minimum Inhibitory Threshold Concentration; MITC95).

[3] = test system: Escherichia coli expressing NDM-1 (CLB30016); test: Antibiotic activity: growth inhibitory concentration (OD600), Escherichia coli CLB30016
Procedure: as §2, §3

[4] = test system: Klebsiella pneumoniae expressing KPC-1 (CL6569); test: Antibiotic activity: growth inhibitory concentration (OD600), Klebsiella pneumoniae CL6569
Method in brief: as §1

Molecule	PA_CL5701 MITC95 [1]	AB_CL6188 MITC95 [2]	EC_CLB30016 MITC95 [3]	KP_CL6569 MITC95 [4]
C[n+]1cc(-c2ccc(OC[C@H](O/N=C(\C(=O)N[C@@H]3C(=O)N(OS(=O)(=O)[O-])C3(C)C)c3csc(N)n3)C(=O)O)cc2)c(N)n1CCCN [Example 50, (S)-3-((Z)-2-(((S)-2-(4-(5-Amino-1-(3-aminopropyl)-2-methyl-1H-pyrazol-2-ium-4-yl)phenoxy)-1-carboxyethoxy)imino)-2-(2-aminothiazol-4-yl)acetamido)-2,2-dimethyl-4-oxoazetidin-1-yl sulfate]	6.25 µM	3.125 µM	6.25 µM	0.3906 µM
(S)-3-((Z)-2-(((S)-2-(4-(2-(3-amino-2-fluoro-2λ^3-propyl)-1-(azetidin-3-ylmethyl)-1H-pyrazol-2-ium-4-yl)phenoxy)-1-carboxyethoxy)imino)-2-(2-aminothiazol-4-yl)acetamido)-2,2-dimethyl-4-oxoazetidin-1-yl sulfate [Example 121]	1.563 µM	1.563 µM	6.25 µM	0.1953 µM
